Experiments:
[1] = test system: thermal hyperalgesia after CCI of the sciatic nerve; experiment: chronic constriction injury (CCI) model, heat hyperalgesia (plantar test); assay type: in vivo, mice; settings: 16 mg/kg i.p.
Description: In addition, the pro- or antinociceptive effects of the compounds of the present invention are analyzed in the chronic constriction injury (CCI) model. The GABAA receptor subunit selective test compounds of the present invention are analysed in the CCI model in 7-8-week-old C57BL/6 mice. See Bennett, G. J. & Xie, Y. K. A peripheral mononeuropathy in rat that produces disorders of pain sensation like those seen in man. […] Seven to eight week old mice are anesthetized with isofluran. Unilateral constriction injury of the left sciatic nerve just proximal to the trifurcation is performed with three loose ligatures. […] Heat hyperalgesia, cold allodynia and mechanical sensitization are assessed 7-9 days after surgery. Mechanical sensitivity is assessed with electronic von Frey filaments (IITC).
Heat hyperalgesia is assessed by measuring paw withdrawal latencies on exposure to a defined radiant heat stimulus are measured with a commercially available apparatus (Plantar Test; Ugo Basile). […]
Pain studies—Neuropathic pain: HZ166 and gabapentin were analyzed in the chronic constriction injury (CCI) model. […] Heat hyperalgesia and mechanical sensitization were assessed 7-16 days after surgery.
Pain Studies—Heat hyperalgesia: Paw withdrawal latencies upon exposure to a defined radiant heat stimulus were measured using a commercially available apparatus (Plantar Test, Ugo Basile, Comerio, Italy). […]

[2] = test system: neuropathic pain after CCI of the sciatic nerve; experiment: chronic constriction injury (CCI) model, mechanical sensitization (von Frey filaments); assay type: in vivo, mice
rhesus monkeys = experiment: conflict model of anxiolytic activity which also measures sedation; assay type: in vivo
Description: The data in FIGS. 21A-21F reflect the ability of the compounds or drugs to exert an anxioyic effect in rhesus monkeys (J. Rowlett, J. M. Cook et al., unpublished results) when given intravenously in propylene glycol/water solution. This is the conflict model of anxiolytic activity which also measures sedation. […] In FIG. 21B, SH-053-2′F (JY-XHE-053) is anxiolytic at a dose of greater than 0.13 mg/kg, but exerts only some slight sedation at doses greater than 1.2 mg/kg (responses decrease). In FIG. 21C it is clear the S-enantiomer of SH-053-2′F—S—CH3 is anxiolytic with no sedation up to 10-18 mg/kg, which is the highest dose tested.

seizures = settings: Rivas et al., 2009, cited from earlier work
[3] = test system: neuropathic pain after CCI of the sciatic nerve; experiment: tolerance development in the CCI model (chronic treatment); assay type: in vivo, mice; settings: for tolerance development / loss of antihyperalgesic activity: 9-day treatment period in neuropathic mice
Description: Tolerance development: Possible development of tolerance against the antihyperalgesic effect of HZ166 was investigated in the CCI model. Starting from day 7 after CCI surgery, HZ166 at the dose of 16 mg/kg or vehicle were administered intraperitoneally once daily for 9 consecutive days. On day 10, each group (vehicle and HZ166) was subdivided in 2 subgroups: one received vehicle and the other HZ166 at the dose of 16 mg/kg. After the last injection, mechanical sensitivity was assessed for 3 hours.

[4] = test system: motor coordination of mice; experiment: rotarod test (motor impairment); assay type: in vivo; settings: HZ166 16 and 48 mg/kg, gabapentin 10 and 30 mg/kg, i.p., 60 min after treatment
Description: Motor impairment: A possible impairment of motor function was analyzed in the rotarod test. Mice were trained on the rotarod (diameter 3 cm, 2 rpm) for 2 days. Animals capable of remaining on the rotarod in the absence of treatment for at least 2 min were selected for drug testing. On the test day, the latency to fall off the rod was recorded before and 60 minutes after treatment with vehicle, HZ166 or gabapentin.

[5] = mice and rats after intraperitoneal (i.p.) application; Rivas et al., 2009; cited from earlier work

C#Cc1ccc2c(c1)C(c1ccccn1)=NCc1c(C(=O)OCC)ncn1-2 [HZ-166, 8-Acetylenyl-6-pyridin-2-yl-4H-benzo[f]imidazo[1,5-a][1,4]diazepine-3-carboxylic acid ethyl ester]
time of peak effect on PWLs after administration [1]: 1 h
AUC of PWL, injured paw ([1]; 7 days after surgery, n=6): 4.33±1.95 s*h
analgesia, mechanical sensitivity (von Frey) in CCI model ([2]; 48 mg/kg, 160 mg/kg and 480 mg/kg i.p.): significant analgesia
AUC of mechanical PWT, HZ166 followed by vehicle ([2]; HZ166 16 mg/kg i.p., vehicle 45 min later, n=6): 1.90 ± 0.29 g·h
ED50 ([2]; Mus musculus, ip, 168 h, i.p., day 7 after CCI surgery, Hill fit, read-out: ED50, increase of ipsilateral PWT): 3.83 ± 0.94 mg/kg
reversal of mechanical hypersensitivity ([2]; i.p., CCI model): dose-dependent reversal
PWTs of the contralateral paw ([2]; i.p., day 7 after CCI surgery): not affected
time of maximum effect on ipsilateral PWT after injection ([2]; i.p., day 7 after CCI surgery): about 1 h
doses at which saturation of the antihyperalgesic effect was reached ([2]; i.p., mechanical PWT): ≥ 160 mg/kg
doses with statistically significant antihyperalgesic effects ([2]; i.p., mechanical PWT): ≥ 16 mg/kg
analgesic effects in the chronic constriction injury model of neuropathic pain ([2]; mouse, in vivo): analgesic effects
no sedation up to dose (rhesus monkeys; conflict model): up to 10 mg/kg
sedative activity (conflict model) (rhesus monkeys; intravenously): no sedative activity
anxiolytic effect (conflict model) (rhesus monkeys; intravenously in propylene glycol/water): anxiolytic
toxicity (seizures): minimal
anticonvulsive activity (seizures; at non-sedative doses): good anticonvulsive activity
analgesic activity in mice chronically exposed to HZ166 versus drug-naïve mice ([3]; 16 mg/kg once daily for 9 days from day 7 after CCI, test on day 10): virtually the same
tolerance development / loss of antihyperalgesic activity [3]: did not develop tolerance
tolerance development / loss of antihyperalgesic activity ([3]; listed as HZ166): no loss
interfered with rotarod performance [4]: Neither
pharmacokinetics [5]: suitable

From USRE47475E1, “Selective agents for pain suppression” (WiSys Technology Foundation, Inc., priority 2002, dated 2019)
